ChEMBL document CHEMBL4308886, “Molecular features characterizing non-peptide selectivity to the human B1 and B2 bradykinin receptors” (Bioorg Med Chem Lett, 2019)

Tests used:
Format in all cases: cell-based
[1] = target: T1, B2 bradykinin receptor (Homo sapiens) (UniProt P30411); assay: Displacement of [3H]bradykinin from human recombinant bradykinin B2 receptor expressed in CHO cells at 50 uM measured after 1 hr relative to control
T1 sequence (whole entry): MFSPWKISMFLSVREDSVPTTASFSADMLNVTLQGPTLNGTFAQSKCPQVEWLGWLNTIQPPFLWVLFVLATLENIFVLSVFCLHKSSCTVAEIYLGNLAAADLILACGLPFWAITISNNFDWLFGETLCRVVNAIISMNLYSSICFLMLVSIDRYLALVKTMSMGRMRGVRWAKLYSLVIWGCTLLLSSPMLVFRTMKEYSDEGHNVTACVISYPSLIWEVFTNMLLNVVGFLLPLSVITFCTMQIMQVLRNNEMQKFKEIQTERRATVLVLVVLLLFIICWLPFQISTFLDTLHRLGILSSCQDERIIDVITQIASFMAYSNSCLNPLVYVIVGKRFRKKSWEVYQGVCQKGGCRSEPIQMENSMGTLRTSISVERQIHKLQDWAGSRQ

[2] = target: T2, B1 bradykinin receptor (Homo sapiens) (UniProt P46663); assay: Displacement of [3H][…] from human recombinant bradykinin B1 receptor expressed in CHO cells at 10 uM measured after 1 hr relative to control
T2 sequence (whole entry): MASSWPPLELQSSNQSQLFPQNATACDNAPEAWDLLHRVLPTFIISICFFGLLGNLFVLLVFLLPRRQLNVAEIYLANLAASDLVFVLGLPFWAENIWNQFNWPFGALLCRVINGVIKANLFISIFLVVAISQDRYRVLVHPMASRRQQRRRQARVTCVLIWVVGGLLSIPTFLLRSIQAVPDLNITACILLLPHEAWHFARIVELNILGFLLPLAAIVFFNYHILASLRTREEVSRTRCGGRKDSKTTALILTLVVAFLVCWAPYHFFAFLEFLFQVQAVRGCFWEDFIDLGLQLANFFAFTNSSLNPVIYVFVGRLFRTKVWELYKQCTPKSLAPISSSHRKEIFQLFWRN

[3] = target: T2, B1 bradykinin receptor (Homo sapiens); assay: Displacement of [3H][…] from human recombinant bradykinin B1 receptor expressed in CHO cells at 50 uM measured after 1 hr relative to control
[4] = target: T1, B2 bradykinin receptor (Homo sapiens); assay: Displacement of [3H]bradykinin from human recombinant bradykinin B2 receptor expressed in CHO cells at 10 uM measured after 1 hr relative to control

Row | SMILES | inhibition [1] | inhibition [2] | inhibition [3] | inhibition [4]
1 | CC1CCC(N2NC(=O)/C(=C\c3cccn3-c3ccc(S(N)(=O)=O)cc3)C2=O)CC1Cl (configuration not stated) | 41% | 31% |  | 
2 | COc1cc(NCCCCCCC2CCCCN2)c2ncccc2c1 (configuration not stated) | 36% |  | 31% | 
3 | COc1cc(NC(C)CCCN)c2nc(C)ccc2c1OC1CCC(F)CC1 (configuration not stated) | 45% |  | 12% | 
4 | CC1=C(C#N)C(=O)N(CCc2c[nH]c3ccccc23)C(=O)/C1=C\Nc1ccc(S(N)(=O)=O)cc1 |  | 32% |  | 34%
5 | Cc1ccc(NC2=NC(=O)/C(=C/c3ccc(-c4ccc(C(=O)O)cc4)o3)S2)cc1Cl |  | 14% |  | 33%
6 | COc1cc(NCCCCCCCC2CCCCN2)c2ncccc2c1 (configuration not stated) | 65% |  | 46% | 
